The IC50 is the concentration needed to halve the response being measured.

The results in this text go back to patent US8575351B2, “Active metabolite of a thrombin receptor antagonist” (Merck Sharp & Dohme Corp., priority 2009, dated 2013).

Data set [1] is described as follows: Rising single dose study: LC-MS profiling of SCH 530348 metabolites in plasma and urine. The data set is classed as in vivo, human. Conditions: for Amount detected in urine (LC-MS): 0-24 hr urine after single 40-mg SCH 530348, humans; for Amount detected in plasma (LC-MS): first 6-hr period after single 20- or 40-mg SCH 530348, humans; for Matrix in which metabolite was detected: single oral 20 and 40 mg SCH 530348, healthy male volunteers, plasma and urine extracts. From the text: Phase I clinical studies were designed to evaluate the pharmacokinetics of SCH 530348 in healthy subjects after rising single and multiple doses. The studies included a randomized, evaluator-blind, placebo-controlled, rising single dose (“RSD”) study and a rising multiple dose (“RMD”) study of orally administered SCH 530348 in healthy subjects.
In the single-dose study, 50 healthy males were enrolled into 6 sequential cohorts and randomized to receive in ascending dose manner placebo (n=2-3/group) or oral SCH 530348 (0.25, 1, 5, 10, 20 and 40 mg; n=5-6/group). The objective of this study was to qualitatively assess SCH 530348 metabolites in selected plasma and urine samples following administration of a single oral dose (20 mg or 40 mg, Groups 5 and 6, respectively) of SCH 530348 to healthy male human subjects. Plasma samples from subjects receiving 20 mg and 40 mg of SCH 530348 or placebo were profiled using liquid chromatography-mass spectrometry (“LC-MS”). Only urine samples from 40 mg dose group were profiled. Corresponding plasma and urine LC-MS profiles from the drug- and placebo-dosed subjects were compared to distinguish the drug-derived components from the endogenous material. Next, metabolites were further characterized using liquid chromatography-tandem mass spectrometry (“LC-MS/MS”) methods. Pathways involved in metabolism of SCH 530348 in humans were proposed.
The samples were analyzed using LC-MS System B comprised of TSQ Quantum (Thermo Electron Corp., San Jose, Calif.) operating in a positive electrospray ionization mode, HPLC module Alliance 2695 (Waters, Corp., Milford, Mass.), and flow scintillation analyzer 500TR Series (PerkinElmer Life and Analytical Sciences, Inc., Boston, Mass.).
The clinical phase of the study was conducted at Pharma Bio-Research Group B.V. (Zuidlaren, The Netherlands). Selected plasma and urine samples from Group 5 (20 mg dose and placebo) and Group 6 (40 mg dose and placebo) were shipped and received frozen at Schering-Plough Research Institute (“SPRI”). The samples were stored at −20±10° C. until processing and analysis for metabolites.
Plasma samples from subjects dosed with SCH 530348 or with placebo, in the […], were pooled as summarized in the following table.
To determine extraction efficiency, all available pre-dose plasma from subjects dosed with SCH 530348 (40-mg dose group) was also pooled across subjects. A 2.0 mL aliquot of plasma was spiked with 10 μL of a system suitability mixture (“SSM”) [SCH 530348 and ^14C-SCH 530348 (combined concentration 40 ng/μL, 5000 DPM/μL), SCH 540679 (40 ng/μL), and SCH 609528 (40 ng/μL)] and processed by solvent extraction with protein precipitation. After extracting once with three volumes of acetonitrile, the supernatant was concentrated and reconstituted in dimethylsulfoxide (˜50% of final sample volume) followed by the addition of 1/1 mixture of mobile phases A and B. Following centrifugation, a sample aliquot was analyzed by liquid chromatography-mass spectrometry/flow scintillation analysis (LC-MS/FSA).
A similar procedure was used to process all plasma samples from the drug- or placebo-administered subjects (20- and 40-mg dose groups), and an aliquot of each reconstituted extract was injected for LC-MS analysis. Targeted LC-MS/MS analysis to confirm the presence of metabolites and characterize their structures was also performed.
Urine samples collected during the first 24-hr period post 40-mg dose were pooled across all SCH 530348-dosed subjects (n=5) and across placebo subjects (n=3). Five milliliters of urine (20% of available urine) were pooled from each subject.
To determine the extraction efficiency, 10% of available pre-dose urine from subjects to be dosed with SCH 530348 was also pooled across the subjects. An aliquot (ca. 3.15 mL) was spiked with 15 μL of SSM and extracted by solid-phase extraction. The urine sample was loaded onto a conditioned Sep-Pak Vac tC18 (Waters Corp.) cartridge and washed with water. […]

Data set [2] in a line: Animal study, M20 formation and exposure multiples in rabbits. It is filed as in vivo. As for the experimental part:
(§1) Exposure multiples exceeded 10 in monkeys after a single dose at 0.5 mg/kg, 25 in mice after a single dose at 75 mg/kg, and 50 in female rabbits on day 7 after multiple daily doses at 20 mg/kg.

Data set [3] can be described thus: Blood levels in placebo-controlled safety study of SCH 530348 in non-urgent PCI subjects. The data set is classed as in vivo, human. An excerpt:
In a multi-center, randomized, double-blind, placebo-controlled study to evaluate the safety of SCH 530348 in subjects undergoing non-urgent percutaneous coronary intervention (“PCI”), blood samples were taken on days 15, 31, 60, 75, and 91. A steady state blood level concentration of SCH 530348 was reached by day 31. By day 31, the M20 metabolite was present in the blood at levels of 30-40% of those of the parent (SCH 530348).

A short description of data set [4]: Animal study, M20 exposure multiples in monkeys. The data set is classed as in vivo. The following applies: single dose at 0.5 mg/kg. As for the experimental part:
as §1

The target in another data set is T1, thrombin receptor (Homo sapiens, UniProt P25116).
T1 construct: human coronary artery smooth muscle cell assay measuring effects on thrombin receptor agonist peptide; endogenous in cells; host or cells: human coronary artery smooth muscle cells
T1 sequence (P25116 22-425): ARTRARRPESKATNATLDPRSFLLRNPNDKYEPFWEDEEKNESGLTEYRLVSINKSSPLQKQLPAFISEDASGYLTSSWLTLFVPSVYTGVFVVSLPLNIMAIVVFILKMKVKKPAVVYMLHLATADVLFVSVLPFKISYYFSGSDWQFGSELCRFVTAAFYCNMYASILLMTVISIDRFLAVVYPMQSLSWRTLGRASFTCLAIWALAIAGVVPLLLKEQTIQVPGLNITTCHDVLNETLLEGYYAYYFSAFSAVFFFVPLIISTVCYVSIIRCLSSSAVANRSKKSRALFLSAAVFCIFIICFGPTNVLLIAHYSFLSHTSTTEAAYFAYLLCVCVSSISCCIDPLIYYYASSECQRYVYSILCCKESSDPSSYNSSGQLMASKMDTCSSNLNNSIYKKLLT
Put plainly: Calcium transient assay (human coronary artery smooth muscle cells, TK-induced calcium efflux). It is filed as cell-based. As for the experimental part: Upon analysis, it was determined that, unlike the other detected metabolites, the concentration of the M20 metabolite in the blood was sufficient for it to be considered a “major metabolite.” That finding triggered an evaluation of its activity. In order to assess activity, SCH 530348 and the M20 metabolite were subjected to a human coronary artery smooth muscle cell assay measuring effects on thrombin receptor agonist peptide TFLLRNPNDK-NH2 (“TK”) on calcium efflux (“the calcium transient assay”).

Data set [5] can be described thus: Animal study, M20 exposure multiples in mice. The data set is classed as in vivo. Conditions: single dose at 75 mg/kg. On the procedure:
as §1

Entries after “also recorded” stand apart in the source; their conditions may differ.

In the case of `C[C@H]1OC(=O)[C@@H]2C[C@@H]3C[C@H](N)CC[C@H]3[C@H](/C=C/c3ccc(-c4cccc(F)c4)cn3)[C@H]12` [Metabolite M19, (3R,3aS,4S,4aR,7R,8aR,9aR)-7-amino-4-[(E)-2-[5-(3-fluorophenyl)-2-pyridinyl]ethenyl]-decahydro-3-methylnaphtho[2,3-c]furan-1(3H)-one], in data set [1], the “Amount detected in urine (LC-MS)” value is “minor to trace levels”, the “Amount detected in plasma (LC-MS)” value is on record as “Trace amounts” and the “Matrix in which metabolite was detected” value is “Plasma,; also recorded: Urine”.

For the compound `C[C@H]1OC(=O)[C@@H]2C[C@@H]3C[C@H](NC(=O)OCCO)CC[C@H]3[C@H](/C=C/c3ccc(-c4cccc(F)c4)cn3)[C@H]12` [Metabolite M20, 2-hydroxyethyl(1R,3aR,4aR,6R,9S,9aS)-9-{(E)-2(5-(3-fluorophenyl)pyridine-2-yl)vinvl}-1-methyl-3-oxododecahydronaphtho[2,3-c]furan-6ylcarbamate], the Exposure multiples in data set [2] (female rabbits, day 7 after multiple daily doses at 20 mg/kg) was over 50; in data set [4] it was “exceeded 10”; in data set [5], over 25. Moreover, the “Formation of metabolite in animals” value in data set [2] (rabbits, after both single and multiple doses) is reported as “formed”. For the same compound, the “Blood level as % of that of the parent (SCH 530348)” value in data set [3] (by day 31) was 30-40%. At thrombin receptor (agonist peptide TFLLRNPNDK-NH2 (TK)), the IC50 was found to be 3.4 nM. Besides, in data set [1], the “Amount detected in plasma (LC-MS)” value is on record as “Trace amounts”. In addition, in data set [1], the “Matrix in which metabolite was detected” value was “Plasma”.

As for `CCOC(=O)N[C@@H]1CC[C@@H]2[C@@H](C1)C[C@H]1C(=O)O[C@H](C)[C@H]1[C@H]2/C=C/c1ccc(-c2cccc(F)c2)cn1` [SCH 530348, Ethyl[(1R,3aR,4aR,6R,8aR,9S,9aS)-9-[(E)-2-[5-(3-fluorophenyl)-2-pyridinyl]ethenyl]dodecahydro-1-methyl-3-oxonaphtho[2,3-c]furan-6-yl]carbamate, reference compound], the “Time to steady state blood level concentration” value in data set [3] (blood samples on days 15, 31, 60, 75, 91) is at most 31 days. Moreover, the concentration for half-maximal inhibition (IC50) at thrombin receptor (agonist peptide […]-NH2 (TK)) came out at 4.5 nM. Besides, in data set [1], the “Amount detected in urine (LC-MS)” value is “not detected” and the “Amount detected in plasma (LC-MS)” value was “primary circulating component”.

In the case of `C[C@H]1OC(=O)[C@@H]2C[C@@H]3C[C@H](NC(=O)OCC(=O)O)CC[C@H]3[C@H](/C=C/c3ccc(-c4cccc(F)c4)cn3)[C@H]12` [Metabolite M16, [[[[(1R,3aR,4aR,6R,8aR,9S,9aS)-9-[(E)-2-[5-(3-fluorophenyl)-2-pyridinyl]ethenyl]dodecahydro-1-methyl-3-oxonaphtho[2,3-c]furan-6-yl]amino]carbonyl]oxy]acetic acid], in data set [1], the “Amount detected in urine (LC-MS)” value is given as “minor to trace levels” and the “Matrix in which metabolite was detected” value is listed as “Urine”.
